Literature values in patent US20200093858A1, “VAGINAL BIOADHESIVE BORIC ACID FORMULATION AND ITS PREPARATION METHOD” (Halo Science LLC, priority 2015, published 2020).
Where two headings read alike, the source gives them in different places.

Experiments:
common fungi or bacteria = details: in urine
C. albicans = details: 2×10^6 per mL of C. albicans, in vitro
T. glabrata = details: refractory T. glabrata vaginitis
[1] = 600 mg per day, therapeutic course of two weeks
[2] = test system: recurrent bacterial vaginosis; details: for cure rate / cumulative cure rate: boric acid in addition to nitroimidazole

Question: What does the source list for `OB(O)O` [boric acid]?
Answer: boric acid concentration that could suppress almost all common fungi or bacteria (common fungi or bacteria): 10 to 20 mg/mL; boric acid concentration that inhibited proliferation of C. albicans (C. albicans): 4%; cure rate (vulvovaginal candidiasis; boric acid treatment of vulvovaginal candidiasis): > 90%; efficacy compared with conazoles (vulvovaginal candidiasis; treatment for 14 days): equivalent to conazoles; Clinical efficacy (T. glabrata): ≤ 81%; mycological eradication rate (T. glabrata): ≤ 77%; adverse reactions [1]: did not cause adverse reactions; adverse reactions ([2]; in vivo): No adverse reactions were observed; cure rate ([2]; week 7): 88%; cure rate ([2]; week 12): 92%; cumulative cure rate ([2]; week 16): 78%; cumulative cure rate ([2]; week 28): 65%
